Like-named read-outs stand apart in the source and are kept apart here.
How the values were obtained:
UGTs = assay: Inhibition of EZE glucuronidation by bile acids in rat liver S9; assay type: in vitro ADME; conditions: liver S9 fractions, pH 7.4, probe EZE (ezetimibe), 3 μM; formation of EZE-Ph; rat liver S9, 3 μM EZE, bile acids up to 100 μM; read-out: inhibition of EZE-Ph generation
Description: To evaluate the effect of hepatic impairment on the hepatic metabolism of EZE, 0.3 μM, 3 μM, and 30 μM EZE were incubated with rat liver S9 fractions (2 mg of protein/mL) at 37 °C for 60 min in the Tris-HCl-buffered system (100 mM, pH 7.4), consisting of UDPGA (1 mM), MgCl2 (10 mM), and alamethicin (25 μg/mL). To investigate the effect of bile acids on the metabolism of EZE in the liver, 3 μM EZE was incubated with rat or human liver S9 fractions (2 mg of protein/mL) at 37 °C for 60 min in the Tris-HCl-buffered system with or without bile acids at 1, 10, and 100 μM. The total volume of the incubation system was 100 μL. The reactions were terminated by adding 100 μL of ice-cold acetonitrile. Samples were stored at −20 °C until analysis. EZE and EZE-Ph were detected by liquid chromatography with tandem mass spectrometry (LC-MS/MS).

rat primary hepatocytes = assay: Inhibition of EZE-Ph uptake into rat primary hepatocytes by bile acids and rifampicin; conditions: 10 μM EZE-Ph, 10 min
Description: Rat primary hepatocytes were isolated from male SD rats as previously described [34]. Fresh rat hepatocytes (120,000 per well) were cultured in Williams’ E medium (containing 0.1 μM dexamethasone, 5% fetal bovine serum, 1% penicillin G/streptomycin, 1% GlutaMAX-I, and 1% insulin–transferrin–selenium) on collagen I-coated 48-well plates. Rat hepatocytes cultured for 4 h under a carbogen atmosphere were directly used for uptake assays.
The hepatocytes were rinsed three times with HBSS (37 °C) and equilibrated in HBSS for 10 min. […] After 10 min of incubation, cells were quickly washed three times with ice-cold HBSS and then lysed by the addition of 300 μL of purified water. The protein content was measured using the BCA protein assay kit. EZE and EZE-Ph were analyzed by LC-MS/MS.
The rates of substrate uptake were normalized using the protein contents of cell lysates.

OATP1B3 [1] = biological target: T1, OATP1B3 (Homo sapiens, UniProt Q9NPD5); assay: Inhibition of OATP1B3-mediated uptake in OATP1B3-transfected HEK293 cells by bile acids and rifampicin
T1 sequence (Q9NPD5 1-702): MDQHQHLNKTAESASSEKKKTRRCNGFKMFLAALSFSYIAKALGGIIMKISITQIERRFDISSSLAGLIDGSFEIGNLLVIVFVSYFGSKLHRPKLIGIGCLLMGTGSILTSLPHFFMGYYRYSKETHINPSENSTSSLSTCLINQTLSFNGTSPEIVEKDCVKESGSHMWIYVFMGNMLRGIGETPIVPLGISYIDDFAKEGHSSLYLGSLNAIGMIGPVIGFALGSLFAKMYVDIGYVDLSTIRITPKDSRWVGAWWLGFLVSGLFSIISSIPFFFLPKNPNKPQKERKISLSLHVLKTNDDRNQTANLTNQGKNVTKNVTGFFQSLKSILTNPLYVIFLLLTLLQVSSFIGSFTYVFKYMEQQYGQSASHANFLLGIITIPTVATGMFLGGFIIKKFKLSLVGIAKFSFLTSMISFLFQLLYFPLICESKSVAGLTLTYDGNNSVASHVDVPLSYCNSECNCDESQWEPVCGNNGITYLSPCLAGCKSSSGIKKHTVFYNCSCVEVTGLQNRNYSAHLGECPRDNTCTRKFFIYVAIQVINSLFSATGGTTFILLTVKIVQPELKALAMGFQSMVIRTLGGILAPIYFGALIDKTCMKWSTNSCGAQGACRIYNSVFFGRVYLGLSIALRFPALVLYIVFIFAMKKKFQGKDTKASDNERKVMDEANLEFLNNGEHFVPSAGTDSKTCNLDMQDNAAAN

[2] = patients with moderate CLD; cited from earlier work
OATP1B3 [3] = biological target: T1, OATP1B3
[4] = substrate: O=C(O)C1OC(Oc2ccc([C@@H]3[C@@H](CC[C@H](O)c4ccc(F)cc4)C(=O)N3c3ccc(F)cc3)cc2)C(O)C(O)C1O; assay: Uptake of EZE-Ph into OAT3-transfected HEK293 cells; assay type: in vitro ADME, human; conditions: other: OAT3 HEK293, uptake time 5 min; 37.0 °C
Description: The kinetic parameters and the half inhibitory concentration (IC50) were calculated using GraphPad Prism. […] The intrinsic clearance (CLint) was calculated as CLint = Vmax/Km.

Row | Molecule | inhibition at 60 min (UGTs) [%] | EZE-Ph uptake by rat hepatocytes in the presence of inhibitor (rat primary hepatocytes; inhibitor 1 μM) [%] | EZE-Ph uptake by rat hepatocytes in the presence of inhibitor (rat primary hepatocytes; inhibitor 100 μM) [%] | IC50 (OATP1B3 [1]) [µM] | other results
1 | C[C@H](CCC(=O)NCCS(=O)(=O)O)[C@H]1CC[C@H]2[C@@H]3[C@H](O)C[C@@H]4C[C@H](O)CC[C@]4(C)[C@H]3C[C@H](O)[C@]12C [TCA, taurocholic acid] | < 40 | 94.1 | 13.9 | 93.1 | –
2 | C[C@H](CCC(=O)NCC(=O)O)[C@H]1CC[C@H]2[C@@H]3[C@H](O)C[C@@H]4C[C@H](O)CC[C@]4(C)[C@H]3C[C@H](O)[C@]12C [GCA, glycocholic acid] | < 40 | 109 | 16.3 | 79.7 | EZE-Ph uptake by rat hepatocytes in the presence of inhibitor (rat primary hepatocytes; inhibitor 10 μM): 64.1%
3 | C=CCN1CC[C@]23c4c5ccc(O)c4O[C@H]2C(=O)CC[C@@]3(O)[C@H]1C5 [Naloxone] | – | – | – | – | decrease of clearance [2]: over 50%
4 | C[C@H](CCC(=O)NCCS(=O)(=O)O)[C@H]1CC[C@H]2[C@@H]3[C@H](O)C[C@@H]4C[C@H](O)CC[C@]4(C)[C@H]3CC[C@]12C [TCDCA, taurochenodeoxycholic acid] | – | – | – | – | IC50 (OATP1B3 [3]): 7.94 µM
5 | OAT3 (Homo sapiens) (protein, host or cells: HEK293) MTFSEILDRVGSMGHFQFLHVAILGLPILNMANHNLLQIFTAATPVHHCRPPHNASTGPWVLPMGPNGKPERCLRFVHPPNASLPNDTQRAMEPCLDGWVYNSTKDSIVTEWDLVCNSNKLKEMAQSIFMAGILIGGLVLGDLSDRFGRRPILTCSYLLLAASGSGAAFSPTFPIYMVFRFLCGFGISGITLSTVILNVEWVPTRMRAIMSTALGYCYTFGQFILPGLAYAIPQWRWLQLTVSIPFFVFFLSSWWTPESIRWLVLSGKSSKALKILRRVAVFNGKKEEGERLSLEELKLNLQKEISLAKAKYTASDLFRIPMLRRMTFCLSLAWFATGFAYYSLAMGVEEFGVNLYILQIIFGGVDVPAKFITILSLSYLGRHTTQAAALLLAGGAILALTFVPLDLQTVRTVLAVFGKGCLSSSFSCLFLYTSELYPTVIRQTGMGVSNLWTRVGSMVSPLVKITGEVQPFIPNIIYGITALLGGSAALFLPETLNQPLPETIEDLENWSLRAKKPKQEPEVEKASQRIPLQPHGPGLGSS | – | – | – | – | Km [4]: 166 µM; Vmax [4]: 0.000306 µmol/min/mg; Vmax/Km [4]: 1.84 µL/min/mg

Source: PMC9785202, “Changes in Disposition of Ezetimibe and Its Active Metabolites Induced by Impaired Hepatic Function: The Influence of Enzyme and Transporter Activities” (Pharmaceutics, 2022)
